Measured values as given in US9745266B2 (THE REGENTS OF THE UNIVERSITY OF COLORADO, A BODY CORPORATE, priority 2013, dated 2017).
Converted amounts (≈) assume the structure as drawn. Where two headings read alike, the source gives them in different places.

Columns and labels:
MRSA ATCC BAA-1683 = assay: Minimum resensitizing concentration (MRC); type: cell-based, S. aureus
Procedure: (§1) A modified broth microdilution assay was employed by incubating MRSA (ATCC: BAA-44) with Of1 in 2-fold series dilution in the presence of individual antibiotics at the highest sensitive concentration at 37° C. overnight. […] This is probably due to both the different sensitive concentration defined for each antibiotic and the different level of resistance of MRSA to various antibiotics. The MRC values were also determined for another three MRSA strains. The strain 33592 (ATCC) behaves similarly to BAA-44, and their MRCs for the three antibiotics tested are all 4 μg/mL. […] ATCC 700789 is particularly interesting, because it is also known as a vancomycin intermediate resistant S. aureus (VISA). […] Furthermore, the mammalian toxicity of Of1 was evaluated using human liver hepatocellular carcinoma HepG2 cell line in CellTiter Glo™ mammalian viability assay (Promega).

[1] = Mammalian toxicity, CellTiter Glo viability assay; type: cell-based, human; conditions: human, HepG2 cells
Procedure: as §1

HepG2 cells = assay: Mammalian toxicity, CellTiter Glo viability assay; type: cell-based, human; conditions: at 4 μg/mL
Procedure: as §1

HeLa cells = assay: Mammalian cytotoxicity, CellTiter-Glo viability assay; type: cell-based, human; conditions: 24 hours
Procedure: To evaluate the cytotoxicity of Of1 in mammalian cells, a cell viability assay was carried out using CellTiter-Glo luminescent cell viability assay kit (Promega). Human cervixcal adenocarcinoma HeLa cells were seeded on white, cell-culture treated 96-well plates (Corning: 3917) with Dulbecco's modified Eagle's medium (DMEM) supplemented with 10% fetal calf serum (FCS), 1% penicillin/streptomycin, at the densities of 20,000 cells/well. The medium volume for each well was 100 μL. Cells were incubated at 37° C. in 5% CO2/95% air for 16 hours. The medium was removed from each well and replaced with 99 μL of warmed fresh medium. To each well, 1 μL of Of1 analog was added in DMSO to final concentrations of 0.5-32 μg/mL. Each series was performed in triplicate. After incubation at 37° C. for another 24 hours, the plates were equilibrated to room temperature for 30 minutes. 100 μL of CellTiter-Glo reagent (Promega) was added to each well and mixed for 2 minutes on an orbital shaker. The plate was incubated at room temperature for another 10 minutes to stabilize luminescent signal. The luminescence of each sample was recorded in an Envision Multilabel Plate Reader (Perkin Elmer).

[2] = system: MSSA strain (ATCC: 25923); assay: Potentiation of β-lactam antibiotics by 20 μM Of1 in MSSA; type: cell-based, S. aureus; conditions: MSSA ATCC 25923
Procedure: Taken together, it appears that Of1 is a resistance-modifying agent specifically for β-lactam antibiotics.
(§2) The MRSA strain ATCC BAA-44 and the methicillin-sensitive S. aureus (MSSA) strain ATCC 25923 were used to determine the MIC values of various antimicrobial compounds in the presence of 20 μM Of1. The experiment was conducted similarly to the CLSI MIC determination described previously; however, MHB was supplemented with 40 μM Of1 prior to set up and inoculation. The final concentration of Of1 after inoculation with BAA-44 was 20 μM.

[3] = system: methicillin-sensitive S. aureus (MSSA, ATCC: 25923); assay: MIC, CLSI broth microdilution; type: cell-based; conditions: Staphylococcus aureus; MSSA ATCC 25923, compound alone
Procedure: (§3) Indoline alkaloid compounds were then screened for the ability to potentiate the activity of methicillin against MRSA. A multi-drug resistant MRSA strain (ATCC: BAA-44) was selected for the initial screening. […] To each well, 20 μM of each individual indoline alkaloid was added and the plates were incubated at 37° C. for 16 hrs.
All antimicrobial compounds were purchased from Sigma-Aldrich. The growth media used for all MIC experiments was Mueller Hinton Broth (MHB) purchased from HIMEDIA through VWR (cat: 95039-356). The inoculum was prepared by diluting a bacterial day culture (OD600 0.15-0.4) to OD600 0.002. This dilution was further diluted two fold when added to 96 well microplates (USA Scientific CytoOne 96-well TC plate, cat: CC7682-7596) for a final inoculum concentration of OD600 0.001. All plates were incubated at 37° C. with shaking for 18 hours (overnight) before results were interpreted.

MRSA ATCC BAA-44 [4] = assay: MIC, CLSI broth microdilution; type: cell-based, S. aureus; conditions: MRSA ATCC BAA-44, compound alone
MRSA ATCC 33592 = assay: Minimum resensitizing concentration (MRC), modified broth microdilution; type: cell-based, S. aureus; conditions: ATCC 33592
Procedure: (§4) For these activity tests, AMOXICILLIN® was used in combination with clavulanic acid (a.k.a., AUGMENTIN®), CEFAZOLIN®, and MEROPENEM® (an ultra-broad-spectrum carbapenem). […] To assess activity of each analog as a resistance-modifying agent (RMA), a modified broth microdilution assay was used. Briefly, this involves incubating MRSA with 2-fold serial dilutions of a compound in the presence of each individual antibiotic at its Clinical Laboratory Standards Institutes (CLSI)-defined sensitive concentration. For AMOXICILLIN®/clavulanic acid, this concentration is 4/2 μg/ml (8-fold potentiation), for CEFAZOLIN®, 8 μg/ml (16-fold potentiation) and for MEROPENEM®, 4 μg/ml (4-fold potentiation). Following overnight incubation, plates were examined for bacterial growth, or lack thereof. Compounds were tested at concentrations ranging from 0.5-32 μg/ml. […] The half growth inhibitory concentration (GI50) of each analog was determined by fitting the data using KaleidaGraph (v4.1.1, Synergy Software).
(§5) A modified broth microdilution assay was employed by incubating MRSA (ATCC: BAA-44) with Of1 in 2-fold series dilution in the presence of individual antibiotics at the highest sensitive concentration at 37° C. overnight. […] The MRC values were also determined for another three MRSA strains. […] Furthermore, the mammalian toxicity of Of1 was evaluated using human liver hepatocellular carcinoma HepG2 cell line in CellTiter Glo™ mammalian viability assay (Promega).
(§6) MRC screens were performed as follows: antibiotic MIC values where S. aureus is considered susceptible were determined from the CLSI handbook supplement. Analogs of Of1 were diluted to 5 mg/ml in DMSO. Antibiotic was prepared at twice the intended final concentration in Mueller Hinton Broth (MHB). For amoxicillin/clavulanic acid, the initial concentration was 8/4 μg/ml, for meropenem 8 μg/ml and for cefazolin 16 μg/ml. 50 μl of the antibiotic containing media was added to each well of 96 well plates and 100 μl was added to the top row. 1.28 μl of 5 mg/ml alkaloid solution was added to the top row of each plate to afford a concentration of 64 μg/ml in the top row of each plate and two fold serial dilutions were performed down the columns. Once the plates were prepared, a day culture of MRSA was diluted to OD600 0.002 and 50 μl was added to each well. The final concentration of MRSA was OD600 0.001, the final concentration of amoxicillin/clavulanic acid was 4/2 μg/ml, the final concentration of meropenem was 4 μg/ml the final concentration of cefazolin was 8 μg/ml, and the highest concentration of Of1 analog tested was 32 μg/ml. Plates were incubated overnight at 37° C. with shaking. The MRC value was determined as the concentration of Of1 analog in the presence of antibiotic at which there was no observable overnight growth.

MRSA ATCC BAA-44 [5] = assay: as above; type: cell-based, S. aureus; conditions: ATCC BAA-44; oxacillin at highest sensitive concentration
Procedure: as §4, §5, §6

MRSA ATCC BAA-44 [6] = assay: MIC in the presence of 20 μM Of1 / alkaloid; type: cell-based, S. aureus
Procedure: as §3, §2

[7] = system: ATCC 700789 (vancomycin intermediate resistant S. aureus, VISA); assay: Minimum resensitizing concentration (MRC); type: cell-based
Procedure: as §1

MIC [3]: > 128 µg/mL
MIC (MRSA ATCC BAA-44 [4]): > 128 µg/mL
MIC (MRSA ATCC BAA-44 [4]; Staphylococcus aureus, read-out: MIC): > 128 µg/mL
MIC of methicillin in media supplemented with 20 μM alkaloid (MRSA ATCC BAA-44 [6]; MRSA ATCC BAA-44, methicillin MIC alone 128): 8 µg/mL
Compound: C=C1CCC[C@@H]2Nc3ccc(Br)cc3[C@]12CCNS(=O)(=O)c1ccc(Cl)cc1 (stereo in doubt) [Of1, N-(2-(6-Bromo-4-methylene-2,3,4,4a,9,9a-hexahydro-1H-carbazol-4a-yl)ethyl)-4-chlorobenzenesulfonamide]
MRC of Of1, amoxicillin/clavulanate (MRSA ATCC BAA-1683): 4 µg/mL
MRC of Of1, oxacillin (MRSA ATCC BAA-1683; 32 μg/mL highest concentration tested): >32 µg/mL
GI50 [1]: ~8.9 µg/mL (≈ 18.5 µM)
cytotoxic effect against HepG2 cells (HepG2 cells): no observable cytotoxic effect
GI50 (HeLa cells): 17.1 µg/mL (≈ 35.5 µM)
potentiation of β-lactam antibiotics in MSSA [2]: does not show any significant potentiation effect
MRC of Of1, amoxicillin/clavulanate (MRSA ATCC 33592): 4 µg/mL
MRC of Of1, cefazolin (MRSA ATCC 33592): 4 µg/mL
MRC of Of1, oxacillin (MRSA ATCC 33592; oxacillin at highest sensitive concentration): 4 µg/mL
MRC of Of1, oxacillin (MRSA ATCC BAA-44 [5]): 2 µg/mL
fold potentiation of methicillin (MRSA ATCC BAA-44 [6]; 20 μM (ca. 10 μg/mL) Of1, MRSA BAA-44): 16 fold
fold potentiation of all β-lactam antibiotics (MRSA ATCC BAA-44 [6]; 20 μM Of1, MRSA BAA-44): 8-128 fold
fold potentiation of meropenem (MRSA ATCC BAA-44 [6]; 20 μM Of1, MRSA BAA-44): 16 fold
MRC of Of1, oxacillin ([7]; ATCC 700789): >64 µg/mL
MRC of Of1, amoxicillin/clavulanate ([7]; ATCC 700789 (VISA)): 4 µg/mL
